Experimental data reported in EP4631963A1, “PEPTIDE FOR CARTILAGE REGENERATION, AND USES THEREOF” (Caregen Co., Ltd., priority 2022, dated 2024).
Where a SMILES comes first, the peptide text is derived from it. Where no end group is shown, it is not given here.

System: C28/I2, human chondrocyte cell line
Test: CCK-8 cytotoxicity assay
Type: cell-based
Settings: C28/I2 cells, different concentrations, 3 days, 450 nm; FIG. 1, FIG. 2
Description: The cytotoxicity of Peptide-1 or Peptide-2 upon addition to human-derived chondrocytes (C28/I2, human chondrocyte cell line) was analyzed using a CCK-8 assay.
Specifically, human-derived chondrocytes were seeded in a 96-well plate at a density of 3 × 10^3 cells/well and cultured in DMEM medium (cat. 11995-065, Gibco) for 24 hours.

Compound: HHEERY [Peptide-1, HHEERY]
- toxicity in human-derived chondrocytes (CCK-8 activity): did not exhibit toxicity

Compound: CC(C)C[C@H](NC(=O)[C@@H](NC(=O)[C@@H](N)CCCNC(=N)N)[C@@H](C)O)C(=O)N[C@@H](CCC(=O)O)C(=O)O [Peptide-2, RTLE] (H-RTLE-OH)
- toxicity in human-derived chondrocytes (CCK-8 activity): did not exhibit toxicity
